The record followed here is patent US20240109865A1, “INDAZOLE COMPOUNDS AS KINASE INHIBITORS” (TYRA BIOSCIENCES, INC., priority 2020, published 2024).

Experiment [1] relates to UM-UC-14 cells (FGFR3(S249C)). The experiment can be described thus: UM-UC-14 cancer cell line cell viability assay (CellTiter-Glo 2.0). Conditions: UMUC14, 72 hours, Cell Titer Glo 2.0. Format: cell-based. The source says:
Experimental Purpose: To detect the change of intracellular ATP by Cell Titer-Glo® and to evaluate the inhibitory effect of the compounds on cancer cell lines by determining the in vitro IC50 value of the compounds.
Cell Titer-Glo® 2.0 Luminescent cell viability assay reagent was purchased from Promega (Madison, WI). RT112/84 and KG-1 cell lines were purchased from American Type Culture Collection (Manassas, VA). UM-UC-14 cell line was purchased from Sigma (St. Louis, MO). RT112/84, UM-UC-14, and KG-1 cells were cultured in RPMI1640 media supplemented with 10% fetal bovine serum. Cultures were maintained at 37° C. in a humidified atmosphere of 5% C02 and 95% air.
Cell Viability Assay Procedure: Cells were plated in 96-well clear bottom/white plates (Corning #3903) at 10,000 cells/well in 100 μl of media, incubated overnight. The next day, test compound DMSO stock solutions were made at 10 mM and 2 μM final concentration. Compounds were then added to cells in a 9-dose, 10-fold dilution series starting at 30 μM with an HP 300e Digital Dispenser (each dose was applied in triplicate). DMSO was backfilled to each well up to 301 nL total volume of test compound+DMSO, and a total of 301 nL DMSO was added to a control/no test compound well in triplicate. The cells in cell culture plates were incubated with the compounds at 37° C. and 5% C02 for 72 hours. Then 50 μl of Cell Titer Glo 2.0 reagent was added to each well of the cell culture plates. The contents were covered from light and mixed on an orbital shaker at room temperature for 10 min. Luminescence was recorded by a Synergy H1 Microplate Reader (Biotek, Winooski, VT). Cells were assessed as a percentage of DMSO only treated control cells. Curves were plotted and IC50 values were calculated using the GraphPad Prism 8 program based on a sigmoidal dose-response equation (4 parameter).

In experiment [2] the test system is KG-1 cells (FGFR1-fusion). The experiment can be described thus: KG-1 cancer cell line cell viability assay (CellTiter-Glo 2.0). Format: cell-based. Conditions: Homo sapiens, 72 hours, Cell Titer Glo 2.0. A digest of the protocol:
(§1)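 Viability was measured as cellular ATP by CellTiter-Glo 2.0 luminescence after 72 h compound exposure, using nine 10-fold doses from 30 μM, in triplicate. Cells were plated at 10,000/well in RPMI1640 with 10% FBS the day before dosing. Signal was expressed as % of DMSO-treated control, and IC50 came from a 4-parameter fit.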

The next experiment addresses FGFR1-BCR Ba/F3 cells (Homo sapiens, UniProt P11362). The experiment can be described thus: Ba/F3 cell viability assay (CellTiter-Glo 2.0), FGFR1-BCR Ba/F3. It is filed as cell-based. A digest of the protocol:
(§2)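 Viability read as ATP luminescence (CellTiter-Glo 2.0) after 48 h compound exposure, normalized to DMSO-treated cells and fitted with a 4-parameter curve for IC50. Cells: Ba/F3 dependent on FGFR1-BCR or FGFR3-BAIAP2L1 fusion kinase; top dose 30 μM, 10-fold steps, 9 doses in triplicate.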

Another experiment concerns the target FGFR3 (V555M) (Homo sapiens (Human), UniProt P22607, V555M). The experiment can be described thus: Kinase assay, binding constants (Kd), kinase-tagged T7 phage, qPCR. Conditions: V555M mutant. An outline of the steps:
(§3)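 Kinase-tagged T7 phage (grown in BL21-derived E. coli) competed with test compound for immobilized biotinylated ligand on streptavidin beads. Kds came from an 11-point 3-fold dilution series at 0.9% final DMSO. Bound kinase was eluted with non-biotinylated ligand and quantified by qPCR, with Hill slope fixed at −1.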

Another experiment has as its target FGFR1 (Homo sapiens (Human), UniProt P11362). The experiment is described as above. An outline of the steps: as §3
The target in the next experiment is FGFR3 (Homo sapiens (Human), UniProt P22607). The experiment is described as above. A digest of the protocol: as §3
The target in the next experiment is FGFR4 (Homo sapiens (Human), UniProt P22455). The experiment is described as above. An outline of the steps:
as §3

The target of the next experiment is FGFR2 (Homo sapiens (Human), UniProt P21802). Described as above. An outline of the steps: as §3
Experiment [3] concerns RT112/84 cells (FGFR3-fusion). The experiment can be described thus: RT112/84 cancer cell line cell viability assay (CellTiter-Glo 2.0). Format: cell-based. Conditions: Homo sapiens, 72 hours, Cell Titer Glo 2.0. A digest of the protocol: as §1
For experiment [4], the target named is FGFR3-BAIAP2L1 Ba/F3 cells (Homo sapiens, UniProt P22607). The experiment in a line: Ba/F3 cell viability assay (CellTiter-Glo 2.0), FGFR3-BAIAP2L1 Ba/F3. It is filed as cell-based. A digest of the protocol:
as §2

Setting [5] is: read-out: Ba/F3 Cells FGFR1 (IC50 nM), 48 hours, Cell Titer Glo 2.0.
Where [6] appears, read: FGFR3 > FGFR1 selectivity ratio in Ba/F3 FGFR fusion cell based assays.
Setting [7] is: read-out: Ba/F3 Cells FGFR3 (IC50 nM); FGFR3-BAIAP2L1 Ba/F3 cells, 48 hours, Cell Titer Glo 2.0.
Where [8] appears, read: 48 hours, Cell Titer Glo 2.0, read-out: Ba/F3 Cells FGFR1 (IC50 nM).
[9] abbreviates: FGFR3-BAIAP2L1 Ba/F3 cells, 48 hours, Cell Titer Glo 2.0; read-out: Ba/F3 Cells FGFR3 (IC50 nM).

Where two headings read alike, the source gives them in different places. Some results are limits rather than exact numbers.

Sequence of FGFR1-BCR Ba/F3 cells (P11362 22-822 limits assumed, change not shown): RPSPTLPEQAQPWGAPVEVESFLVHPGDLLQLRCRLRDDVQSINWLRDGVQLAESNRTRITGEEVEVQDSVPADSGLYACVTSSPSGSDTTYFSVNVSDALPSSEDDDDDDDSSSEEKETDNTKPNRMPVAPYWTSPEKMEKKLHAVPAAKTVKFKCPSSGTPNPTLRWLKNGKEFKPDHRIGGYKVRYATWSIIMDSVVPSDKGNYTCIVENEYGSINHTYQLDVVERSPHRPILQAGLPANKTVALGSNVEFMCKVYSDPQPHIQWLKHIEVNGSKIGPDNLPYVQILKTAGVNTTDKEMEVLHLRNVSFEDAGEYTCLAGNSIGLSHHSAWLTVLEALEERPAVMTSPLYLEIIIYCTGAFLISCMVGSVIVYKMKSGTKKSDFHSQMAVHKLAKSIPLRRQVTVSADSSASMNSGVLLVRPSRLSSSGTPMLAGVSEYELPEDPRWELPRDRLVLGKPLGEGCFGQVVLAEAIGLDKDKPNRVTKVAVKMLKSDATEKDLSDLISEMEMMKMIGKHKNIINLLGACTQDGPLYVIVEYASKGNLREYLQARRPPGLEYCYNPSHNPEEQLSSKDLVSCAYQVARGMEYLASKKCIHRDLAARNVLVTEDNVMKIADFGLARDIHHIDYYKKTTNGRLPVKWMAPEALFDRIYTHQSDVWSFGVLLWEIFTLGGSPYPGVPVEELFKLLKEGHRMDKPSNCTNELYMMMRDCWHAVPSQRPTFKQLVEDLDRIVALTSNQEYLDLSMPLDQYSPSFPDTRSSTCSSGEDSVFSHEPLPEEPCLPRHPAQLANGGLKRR
Sequence of FGFR1 (P11362 22-822): as the sequence (P11362 22-822 limits assumed, change not shown) above
Sequence of FGFR3-BAIAP2L1 Ba/F3 cells (P22607 23-806 limits assumed, change not shown): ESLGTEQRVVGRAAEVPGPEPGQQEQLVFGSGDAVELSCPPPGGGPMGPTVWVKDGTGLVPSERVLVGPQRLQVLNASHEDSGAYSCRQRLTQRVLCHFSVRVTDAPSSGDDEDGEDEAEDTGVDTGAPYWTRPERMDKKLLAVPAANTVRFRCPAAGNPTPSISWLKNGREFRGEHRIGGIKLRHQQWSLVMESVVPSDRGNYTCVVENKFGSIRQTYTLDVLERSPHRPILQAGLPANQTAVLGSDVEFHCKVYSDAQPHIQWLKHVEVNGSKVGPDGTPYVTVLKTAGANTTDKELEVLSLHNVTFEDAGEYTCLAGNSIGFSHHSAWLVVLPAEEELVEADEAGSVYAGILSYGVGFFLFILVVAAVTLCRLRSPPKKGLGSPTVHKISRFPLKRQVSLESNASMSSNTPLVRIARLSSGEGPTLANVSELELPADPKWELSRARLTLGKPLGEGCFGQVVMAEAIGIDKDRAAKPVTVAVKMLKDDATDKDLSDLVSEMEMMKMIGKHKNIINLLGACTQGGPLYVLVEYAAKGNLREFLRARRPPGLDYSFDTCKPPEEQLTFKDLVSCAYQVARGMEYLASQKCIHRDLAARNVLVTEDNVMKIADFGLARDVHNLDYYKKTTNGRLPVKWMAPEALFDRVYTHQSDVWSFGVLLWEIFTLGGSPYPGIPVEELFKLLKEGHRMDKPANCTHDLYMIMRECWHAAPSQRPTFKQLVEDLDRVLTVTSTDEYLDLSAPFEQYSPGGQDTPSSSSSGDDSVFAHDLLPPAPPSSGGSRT
Sequence of FGFR3 (P22607 23-806): as the sequence (P22607 23-806 limits assumed, change not shown) above
Sequence of FGFR4 (P22455 22-802): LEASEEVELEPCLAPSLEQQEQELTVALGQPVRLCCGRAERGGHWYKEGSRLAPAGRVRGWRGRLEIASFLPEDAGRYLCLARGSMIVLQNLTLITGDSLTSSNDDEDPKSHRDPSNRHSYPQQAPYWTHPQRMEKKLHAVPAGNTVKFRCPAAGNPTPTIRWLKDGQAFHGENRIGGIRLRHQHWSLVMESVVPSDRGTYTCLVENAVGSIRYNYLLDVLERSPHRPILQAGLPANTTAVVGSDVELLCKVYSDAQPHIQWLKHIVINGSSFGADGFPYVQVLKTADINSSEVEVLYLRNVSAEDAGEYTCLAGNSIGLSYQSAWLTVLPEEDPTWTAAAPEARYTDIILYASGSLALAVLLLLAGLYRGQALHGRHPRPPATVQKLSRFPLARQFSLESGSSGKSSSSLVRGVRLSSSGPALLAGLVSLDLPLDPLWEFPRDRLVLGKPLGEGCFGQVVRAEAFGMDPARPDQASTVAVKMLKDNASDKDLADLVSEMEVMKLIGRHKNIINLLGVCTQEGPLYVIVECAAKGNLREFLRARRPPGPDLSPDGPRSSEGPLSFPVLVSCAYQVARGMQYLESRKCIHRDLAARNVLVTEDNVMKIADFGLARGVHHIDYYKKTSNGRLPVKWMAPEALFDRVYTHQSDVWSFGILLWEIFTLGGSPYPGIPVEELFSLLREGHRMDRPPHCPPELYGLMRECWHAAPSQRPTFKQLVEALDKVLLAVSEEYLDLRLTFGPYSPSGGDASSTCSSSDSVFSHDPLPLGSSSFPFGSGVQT
Sequence of FGFR3 (V555M) (P22607 23-806 V555M): as the sequence (P22607 23-806 limits assumed, change not shown) above, with V533M counted along it
Sequence of FGFR2 (P21802 22-821): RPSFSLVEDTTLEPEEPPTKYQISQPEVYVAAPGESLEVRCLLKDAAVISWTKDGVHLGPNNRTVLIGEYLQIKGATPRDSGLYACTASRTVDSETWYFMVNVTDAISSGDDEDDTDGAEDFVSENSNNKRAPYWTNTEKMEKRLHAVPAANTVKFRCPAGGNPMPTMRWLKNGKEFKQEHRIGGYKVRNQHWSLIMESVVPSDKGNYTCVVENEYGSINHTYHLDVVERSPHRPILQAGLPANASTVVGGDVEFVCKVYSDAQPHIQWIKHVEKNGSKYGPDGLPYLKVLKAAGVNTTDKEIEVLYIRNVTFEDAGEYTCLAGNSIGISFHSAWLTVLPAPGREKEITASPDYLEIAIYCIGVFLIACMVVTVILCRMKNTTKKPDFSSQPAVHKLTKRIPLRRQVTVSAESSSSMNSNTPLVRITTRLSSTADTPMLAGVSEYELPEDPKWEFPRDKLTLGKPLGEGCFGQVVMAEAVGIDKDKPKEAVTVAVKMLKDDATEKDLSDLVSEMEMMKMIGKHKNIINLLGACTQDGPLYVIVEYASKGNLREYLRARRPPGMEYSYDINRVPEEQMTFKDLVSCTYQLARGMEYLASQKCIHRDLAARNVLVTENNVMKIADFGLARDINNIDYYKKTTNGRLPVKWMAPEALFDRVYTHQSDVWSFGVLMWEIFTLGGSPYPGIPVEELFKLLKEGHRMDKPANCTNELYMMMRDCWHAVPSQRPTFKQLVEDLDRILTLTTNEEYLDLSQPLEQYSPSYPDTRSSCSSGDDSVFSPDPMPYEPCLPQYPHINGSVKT

For `C[C@@H](Oc1ccc2[nH]nc(-c3cnc(N4CCN(C(=O)N5CCN(C)CC5)CC4)nc3)c2c1)c1c(Cl)cncc1Cl` [Example 15, [4-[5-[5-[(1R)-1-(3,5-dichloro-4-pyridyl)ethoxy]-1H-indazol-3-yl]pyrimidin-2-yl]piperazin-1-yl]-(4-methylpiperazin-1-yl)methanone], the IC50 is 1 to 20 nM in [1]; 20 to 100 nM in experiment [2]; greater than 300 nM on FGFR1-BCR Ba/F3 cells (setting [5]); 1 to 20 nM in [3]; 20 to 100 nM in experiment [4] (setting [7]). For the same compound, the Kd at FGFR3 (V555M), at FGFR1, on FGFR3, at FGFR4 and on FGFR2 was 1 to 20 nM throughout. Moreover, the “Ba/F3 FGFR1/FGFR3 Selectivity” value in [4] (setting [6]) worked out at 10.
Turning to `C[C@@H](Oc1ccc2[nH]nc(-c3ccc(N4CC5CC(C4)N5)nc3)c2c1)c1c(Cl)cncc1Cl` [Example 16, 3-[6-(3,6-Diazabicyclo[3.1.1]heptan-3-yl)-3-pyridyl]-5-[(1R)-1-(3,5-dichloro-4-pyridyl)ethoxy]-1H-indazole], the IC50 was 1 to 20 nM in experiment [1]; 20 to 100 nM in [2]; greater than 300 nM on FGFR1-BCR Ba/F3 cells (setting [8]); 1 to 20 nM in experiment [3]; 20 to 100 nM in experiment [4] (setting [9]). For the same compound, the Kd on FGFR3 (V555M), on FGFR1, at FGFR3, on FGFR4 and at FGFR2 was 1 to 20 nM throughout. In addition, in [4] (setting [6]), the “Ba/F3 FGFR1/FGFR3 Selectivity” value is reported as 14.
`C[C@@H](Oc1ccc2[nH]nc(-c3cnc(N4CCN(C(=O)N(C)C)CC4)nc3)c2c1)c1c(Cl)cncc1Cl` [Example 19, 4-[5-[5-[(1R)-1-(3,5-Dichloro-4-pyridyl)ethoxy]-1H-indazol-3-yl]pyrimidin-2-yl]-N,N-dimethyl-piperazine-1-carboxamide]: the IC50 lay within 1 to 20 nM in experiment [1]; 100 to 300 nM in [2]; 100 to 300 nM at FGFR1-BCR Ba/F3 cells (setting [5]); 1 to 20 nM in [3]; 1 to 20 nM in experiment [4] (setting [7]). Further, the Kd lay in the range of 1 to 20 nM on FGFR3 (V555M); 1 to 20 nM at FGFR1; 1 to 20 nM at FGFR3; 1 to 20 nM on FGFR4; 100 to 300 nM on FGFR2. The “Ba/F3 FGFR1/FGFR3 Selectivity” value in experiment [4] (setting [6]) was 15.
Regarding `C[C@@H](Oc1ccc2[nH]nc(-c3ccc(N4CC5CC(C4)N5S(C)(=O)=O)nc3)c2c1)c1c(Cl)cncc1Cl` [Example 20, 5-[(1R)-1-(3,5-dichloro-4-pyridyl)ethoxy]-3-[6-(6-methylsulfonyl-3,6-diazabicyclo[3.1.1]heptan-3-yl)-3-pyridyl]-1H-indazole], the IC50 was 20 to 100 nM in experiment [1]; 100 to 300 nM in experiment [2]; greater than 300 nM at FGFR1-BCR Ba/F3 cells (setting [8]); 20 to 100 nM in experiment [3]; 20 to 100 nM in experiment [4] (setting [9]). The Kd is 1 to 20 nM on FGFR3 (V555M); 20 to 100 nM at FGFR1; 1 to 20 nM at FGFR3; 1 to 20 nM on FGFR4; 20 to 100 nM at FGFR2. Further, the “Ba/F3 FGFR1/FGFR3 Selectivity” value in [4] (setting [6]) is given as 15.
On to `C[C@@H](Oc1ccc2[nH]nc(-c3ccc(N4CCNC5(CC5)C4)nc3)c2c1)c1c(Cl)cncc1Cl` [Example 21, 3-[6-(4,7-diazaspiro[2.5]octan-7-yl)-3-pyridyl]-5-[(1R)-1-(3,5-dichloro-4-pyridyl)ethoxy]-1H-indazole], for which the IC50 in [1] lay in the range of 1 to 20 nM; in experiment [2] it was 20 to 100 nM; on FGFR1-BCR Ba/F3 cells (setting [5]) it was 100 to 300 nM; in experiment [3] it was 1 to 20 nM; in [4] (setting [7]) it was 1 to 20 nM. Besides, the Kd on FGFR3 (V555M), on FGFR1, at FGFR3, at FGFR4 and on FGFR2 was 1 to 20 nM each time. In addition, the “Ba/F3 FGFR1/FGFR3 Selectivity” value in [4] (setting [6]) is on record as 13.
Turning to `C[C@@H](Oc1ccc2[nH]nc(-c3ccc(N4CCN(S(C)(=O)=O)C5(CC5)C4)nc3)c2c1)c1c(Cl)cncc1Cl` [Example 22, 5-[(1R)-1-(3,5-dichloro-4-pyridyl)ethoxy]-3-[6-(4-methylsulfonyl-4,7-diazaspiro[2.5]octan-7-yl)-3-pyridyl]-1H-indazole], the IC50 in experiment [1] fell in the range of 1 to 20 nM; in experiment [2], 20 to 100 nM; on FGFR1-BCR Ba/F3 cells (setting [5]), 100 to 300 nM; in experiment [3], 1 to 20 nM; in experiment [4] (setting [7]), 1 to 20 nM. For the same compound, the Kd was 1 to 20 nM at FGFR3 (V555M); 20 to 100 nM at FGFR1; 1 to 20 nM at FGFR3; 1 to 20 nM at FGFR4; 20 to 100 nM at FGFR2. Further, the “Ba/F3 FGFR1/FGFR3 Selectivity” value in [4] (setting [6]) was 11.
Consider `C[C@@H](Oc1ccc2[nH]nc(-c3ccc(N4CCN(C(=O)N(C)C)C5(CC5)C4)nc3)c2c1)c1c(Cl)cncc1Cl` [Example 23, (R)-7-(5-(5-(1-(3,5-dichloropyridin-4-yl)ethoxy)-1H-indazol-3-yl)pyridin-2-yl)-N,N-dimethyl-4,7-diazaspiro[2.5]octane-4-carboxamide], for which the IC50 in experiment [1] was 1 to 20 nM; in [2], 100 to 300 nM; at FGFR1-BCR Ba/F3 cells (setting [5]), 100 to 300 nM; in experiment [3] it was 1 to 20 nM; in [4] (setting [7]), 1 to 20 nM. Further, the Kd on FGFR3 (V555M) is 20 to 100 nM; at FGFR1, greater than 300 nM; on FGFR3 it was 100 to 300 nM; at FGFR4 it was greater than 300 nM; on FGFR2, greater than 300 nM. Further, the “Ba/F3 FGFR1/FGFR3 Selectivity” value in experiment [4] (setting [6]) stood at 16.
`C[C@@H](Oc1ccc2[nH]nc(-c3ccc(N4CCN(C(N)=O)C5(CC5)C4)nc3)c2c1)c1c(Cl)cncc1Cl` [Example 24, 7-[5-[5-[(1R)-1-(3,5-dichloro-4-pyridyl)ethoxy]-1H-indazol-3-yl]-2-pyridyl]-4,7-diazaspiro[2.5]octane-4-carboxamide]: the IC50 was in the range of 1 to 20 nM in experiment [1]; 20 to 100 nM in [2]; 20 to 100 nM on FGFR1-BCR Ba/F3 cells (setting [5]); 1 to 20 nM in experiment [3]; 1 to 20 nM in experiment [4] (setting [7]). Besides, the Kd at FGFR3 (V555M), at FGFR1, at FGFR3, on FGFR4 and at FGFR2 was 1 to 20 nM in each case. Further, the “Ba/F3 FGFR1/FGFR3 Selectivity” value in experiment [4] (setting [6]) is on record as 18.
Turning to `C[C@@H](Oc1ccc2[nH]nc(-c3ccc(N4CCC5(CCCO5)CC4)nc3)c2c1)c1c(Cl)cncc1Cl` [Example 26, 8-[5-[5-[(1R)-1-(3,5-dichloro-4-pyridyl)ethoxy]-1H-indazol-3-yl]-2-pyridyl]-1-oxa-8-azaspiro[4.5]decane], the IC50 was 20 to 100 nM in experiment [1]; greater than 300 nM in experiment [2]; greater than 300 nM at FGFR1-BCR Ba/F3 cells (setting [5]); 20 to 100 nM in experiment [3]; 20 to 100 nM in experiment [4] (setting [7]). The Kd is 1 to 20 nM on FGFR3 (V555M); 20 to 100 nM on FGFR1; 1 to 20 nM at FGFR3; 1 to 20 nM on FGFR4; 20 to 100 nM at FGFR2. Moreover, in experiment [4] (setting [6]), the “Ba/F3 FGFR1/FGFR3 Selectivity” value is on record as 28.
